Values quoted from earlier work in patent publication EP1249231B1, “Pharmaceutical formulations comprising anti-inflammatory compounds and use thereof” (VESIFACT AG, priority 2001, dated 2002).

Conditions: free acid; background statement

Compound: CC(C)Cc1ccc(C(C)C(=O)O)cc1 (stereo not shown) [Ibuprofen]
- Löslichkeit in Wasser und im sauren Milieu des Magensaftes: schlecht löslich
